For 3 cell lines, relative viability results are on record in the supplement of paper PMC10307832.

Experiment in all cases: relative viability (nuclei count vs DMSO), 5 days (fraction); higher = more cells survive
Compound in assay [1]: C1=CC=C(C(=C1)C2=CC=C(C=C2)C3=CSC4=C3C(=C(C(=O)N4)C#N)O)O + NC(=O)Nc1cc(-c2cccc(F)c2)sc1C(=O)N[C@H]1CCCNC1 [AZD7762] (partner 0.2 µM)
The procedure, abridged: (§1)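 Each reported value is a median over duplicate plates. It expresses relative viability: treated-well nuclei count divided by vehicle-well nuclei count. Lung cancer cell lines in 1536-well plates were dosed by pin tool a day after seeding, alone with one drug or with a fixed anchor-drug dose plus five library-drug doses (not always all listed) in √10 steps, and nuclei were counted after 5 days.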

Compound in assay [2]: C1=CC=C(C(=C1)C2=CC=C(C=C2)C3=CSC4=C3C(=C(C(=O)N4)C#N)O)O + Nc1nc2[nH]cc(CCc3ccc(C(=O)N[C@@H](CCC(=O)O)C(=O)O)cc3)c2c(=O)[nH]1 [Pemetrexed] (partner 0.2 µM)
The procedure, abridged: as §1

Compound in assay [3]: C1=CC=C(C(=C1)C2=CC=C(C=C2)C3=CSC4=C3C(=C(C(=O)N4)C#N)O)O + Nc1ncn([C@H]2C[C@H](O)[C@@H](CO)O2)c(=O)n1 [Decitabine] (partner 2 µM)
The procedure, abridged: as §1

Compound in assay [4]: O=C(CCCCCCNC(=O)c1cnc(N(c2ccccc2)c2ccccc2)nc1)NO [Ricolinostat] + CC(=O)Nc1cccc(-n2c(=O)n(C3CC3)c(=O)c3c(Nc4ccc(I)cc4F)n(C)c(=O)c(C)c32)c1 [Trametinib] (partner 0.02 µM)
Put shortly: as §1

As to NCI-H2405, the relative viability in assay [1] (first compound 0.08 µM) stood at 0.661; in assay [1] (first compound 0.8 µM), 0.752; in assay [1] (first compound 2.53 µM), 0.635; in assay [1] (first compound 8 µM) it was 0.686; in assay [2] (first compound 0.08 µM) it was 1.01; in assay [2] (first compound 0.8 µM), 1.07. For the same cell line, the relative viability worked out at 0.975 in assay [2] (first compound 2.53 µM); 0.948 in assay [2] (first compound 8 µM); 0.798 in assay [3] (first compound 0.08 µM); 0.774 in assay [3] (first compound 0.8 µM); 0.66 in assay [3] (first compound 2.53 µM); 0.725 in assay [3] (first compound 8 µM). Besides, the relative viability in assay [4] (first compound 0.08 µM) stood at 0.591; in assay [4] (first compound 0.253 µM), 0.682; in assay [4] (first compound 0.8 µM) it was 0.666; in assay [4] (first compound 2.53 µM), 0.82.
Take PC-14: the relative viability in assay [1] (first compound 0.08 µM) came out at 0.316; in assay [1] (first compound 0.253 µM), 0.272; in assay [1] (first compound 0.8 µM) it was 0.332; in assay [1] (first compound 2.53 µM), 0.363; in assay [1] (first compound 8 µM), 0.24; in assay [2] (first compound 0.08 µM) it was 0.151. Further, the relative viability in assay [2] (first compound 0.253 µM) turned out to be 0.156; in assay [2] (first compound 0.8 µM), 0.153; in assay [2] (first compound 2.53 µM), 0.125; in assay [2] (first compound 8 µM), 0.146; in assay [3] (first compound 0.08 µM), 0.222; in assay [3] (first compound 0.253 µM) it was 0.242. In addition, the relative viability was 0.24 in assay [3] (first compound 0.8 µM); 0.225 in assay [3] (first compound 2.53 µM); 0.195 in assay [3] (first compound 8 µM); 0.733 in assay [4] (first compound 0.08 µM); 0.789 in assay [4] (first compound 0.253 µM); 0.666 in assay [4] (first compound 0.8 µM). Besides, the relative viability in assay [4] (first compound 2.53 µM) came out at 0.417.
As to NCI-H1666, the relative viability in assay [1] (first compound 0.08 µM) worked out at 0.807; in assay [1] (first compound 0.253 µM) it was 0.894; in assay [1] (first compound 0.8 µM), 0.8; in assay [1] (first compound 2.53 µM) it was 0.796; in assay [1] (first compound 8 µM) it was 0.706; in assay [2] (first compound 0.08 µM), 0.796. Further, the relative viability was found to be 0.833 in assay [2] (first compound 0.253 µM); 0.894 in assay [2] (first compound 0.8 µM); 0.865 in assay [2] (first compound 2.53 µM); 0.761 in assay [2] (first compound 8 µM); 0.662 in assay [3] (first compound 0.08 µM); 0.851 in assay [3] (first compound 0.253 µM). Besides, the relative viability came to 0.742 in assay [3] (first compound 0.8 µM); 0.664 in assay [3] (first compound 2.53 µM); 0.601 in assay [3] (first compound 8 µM); 0.872 in assay [4] (first compound 0.08 µM); 0.869 in assay [4] (first compound 0.253 µM); 0.84 in assay [4] (first compound 0.8 µM). The relative viability in assay [4] (first compound 2.53 µM) turned out to be 0.879.
